Assay results reported in patent publication US10821152B2, “Methods, agents and compositions for treatment of inflammatory conditions” (Betanien Hospital, priority 2014, dated 2020).
Read-outs that look alike come from different tables or passages of the source. Non-standard residues stand in square brackets, D forms with d. Residues, ends and D or L forms follow the SMILES beside them. dPhe(4-Cl) = N[C@H](Cc1ccc(Cl)cc1)C(=O)O; d2Nal = N[C@H](Cc1ccc2ccccc2c1)C(=O)O; dCit = NC(=O)NCCC[C@@H](N)C(=O)O; d3Pal = N[C@H](Cc1cccnc1)C(=O)O

Assays:
[1] = tested on: patient with seropositive rheumatoid arthritis; experiment: Example treatment of RA using oral GnRH antagonists (DAS); assay type: in vivo, human
Method: • person with seropositive rheumatoid arthritis with disease duration of 10 years. • Fulfills ACR 2010 classification criteria for rheumatoid arthritis. Experimental Treatment • Is offered experimental GnRH antagonist therapy, Elagolix 550 mg daily for 12 weeks.
• person with seropositive rheumatoid arthritis with disease duration of 10 years. • Fulfills ACR 2010 classification criteria for rheumatoid arthritis. Experimental Treatment • Is offered experimental GnRH antagonist therapy, Relugolix 250 mg daily for 12 weeks.
• person with seropositive rheumatoid arthritis with disease duration of 20 years. • Fulfills ACR 2010 classification criteria for rheumatoid arthritis. Experimental Treatment • Treated with a spiroindoline derivative as a GnRH antagonist orally 200 mg daily for 12 weeks.

[2] = tested on: patient with spondyloarthritis; experiment: Example treatment of spondyloarthritis using Relugolix; assay type: in vivo, human
Method: • person with spondyloarthritis with disease duration of 5 years. Experimental Treatment • Is offered experimental GnRH antagonist therapy, Relugolix 400 mg daily for 12 weeks. Assessment of Response at 4 Months • Disease activity in ankylosing spondylitis/spondyloarthritis is measured by the BASDAI score. Their BASDAI is 5 at baseline.

[3] = tested on: patient with systemic lupus erythematosus; experiment: Previous therapies for pain in extremities of the lupus patient; assay type: in vivo, human; conditions: previous therapies before degarelix
Method: Due to their painful condition, they have been followed up by a pain clinic. They were offered a tricyclic antidepressant, amitriptyline 25 mg in March 2014 for their painful condition.

[4] = tested on: patient with systemic sclerosis; conditions: Cyclophosphamide trial, literature, cited from earlier work
[5] = tested on: patient with ankylosing spondylitis; experiment: Treatment of ankylosing spondylitis patient (BASDAI, laboratory variables); assay type: in vivo, human; conditions: AS patient
Source text: Diagnosed with ankylosing spondylitis in 1984, HLAB27 positive, with repeated iridocyclitis. Used non-steroidal anti-inflammatory drugs previously. They were offered the TNF-alpha inhibitor Golilimumab in 2010. Their disease activity score was 8.9 in October 2010 (see below for explanation of disease activity score) on initiating Golilimumab; by the June 2012 this score had reduced to 6.6, but by May 2013 the effect had worn off and their score was 7.6. May 2013, they initiated Enbrel treatment, but their disease activity increased from 7.6 to 8.3. Due to their poor response to TNF-alpha therapy, they were offered the GnRH antagonist Degarelix in September 2014.
Disease activity in ankylosing spondylitis is measured by the BASDAI (Bath Ankylosing Spondylitis Disease Activity Index1), has been extensively validated in clinical trials, 2, 3 and is one of the most commonly used outcome measures in clinical trials. This is a componsite index that evaluates fatigue, axial and peripheral pain, stiffness and enthesopathy. Their BASDAI was at 8.7 at baseline. In September 2014 they received their first dose of Degarelix 240 mg sc. By 2 weeks, their BASDAI had reduced to 6.8, and by 6 weeks it had reduced to 5.8. This is the lowest BASDAI score they have ever had since we first started using this method of assessment 4 years ago in 2010. Their morning stiffness lasted 4 hours at baseline, by 6 weeks their morning stiffness had reduced to 2 hours. They had their second dose of Degarelix 80 mg s.c in October 2014. Lumbar flexion and maximum arm abduction were increased after 6 weeks of treatment.
Response to therapy in clinical practice is defined as improvement of 2 units or 50% on a 0-10 scale of the BASDAI, and expert opinion that the treatment should be continued. Their reduction by 6 weeks was 2.9 units, and 7.1 units with an 82% BASDAI score improvement by 9 weeks, and we shall continue treatment. A BASDAI 50% improvement is defined as a major clinical response. […] For comparison, approximately 50-60% of patients achieve a BASDAI 50 by 12 weeks on TNF inhibitors (4). Their ESR has decreased from 46 mm to 23 mm, which is their lowest ESR reading in 19 years. […] By 9 weeks of GnRH antagonist therapy, their kidney function has normalized, and fasting glucose reduced from 7.4 to 6.5 mmol/L. By 3 months, the effect on their ankylosing spondylitis remained, creatinine was at 98 umol/L, with a glomerular filtration rate of 66 ml/min/1.73 m2 in December 2014.

[6] = tested on: patient with lithium induced psoriasis; conditions: 15 patients with psoriasis taking lithium, pretreatment, literature; cited from earlier work
[7] = tested on: patients with rheumatoid arthritis; conditions: AGRA study, 5 days, Kass et al. 2014; cited from earlier work
[8] = tested on: patient with seropositive rheumatoid arthritis; experiment: Treatment of rheumatoid arthritis using Cetrorelix; assay type: in vivo, human; conditions: RA patient
Method: • person with seropositive rheumatoid arthritis with disease duration of 10 years. • Fulfilled ACR 2010 classification criteria for rheumatoid arthritis. Experimental Treatment • Had tried all therapies available previously without effect. • Offered experimental GnRH antagonist therapy, Cetrorelix in 0.5 mg sc daily in October 2014, then 0.75 mg sc daily in December 2014.

mice = experiment: Animal study of preventing age related inflammation; assay type: in vivo; conditions: 0.5 mg/kg daily with or without gonadal hormone replacement, vs placebo
Method: An animal study is conducted with 40 fertile female mice aged approximately 6-20 months in a control group (group 1) receiving placebo, 40 age and sex matched mice receiving a drug that reduces the activity of GnRH (group 2), such as Cetrorelix 0.5 mg/kg daily, and 40 age and sex matched mice receiving the same GnRH inhibitor as group 2, but with the additional replacement of gonadal hormone (oestrogen) to age adjusted pre-chosen levels. All mice are followed prospectively, and evaluated for systemic inflammation markers, atherosclerosis, osteoporosis, LDL, and age at death. The same three interventions and assessments are carried out in three groups of male mice with 40 male mice in each group, aged approximately 6-20 months, replacing the gonadal hormone testosterone to pre-chosen levels in group 3. Mice treated with a drug that reduces the activity of GnRH, such as Cetrorelix 0.5 mg/kg daily with or without the replacement of gonadal hormone (preferably with) reach a higher age at death compared with mice in the placebo groups. These mice also show less atherosclerosis, osteoporosis and systemic inflammation than mice in the placebo groups.

[9] = tested on: patients with active longstanding RA; experiment: Double-blinded randomised study of cetrorelix vs placebo in RA (NCT00667758), serum P1NP; assay type: in vivo, human
Method: In this double-blinded, single-site study in Norway (ClinicalTrials.gov NCT00667758), 99 patients with active longstanding RA, were randomised to predefined intention-to-treat populations using computer-generated allocation (1:1) in dynamic blocks stratified for sex. Patients were assigned to subcutaneous cetrorelix (n=48) (5 mg days 1-2, 3 mg days 3-5) or placebo (n=51). P1NP was measured on day 10. We investigated serum P1NP between groups, a predefined secondary endpoint. Detailed efficacy and safety data are presented separately.

[10] = tested on: patient with osteoarthritis of both knees; experiment: Intra-articular GnRH inhibiting treatment in osteoarthritis; assay type: in vivo, human; conditions: intra-articular 1 mg into both knees, 2 week post injection
Source text: • person with osteoarthritis of both knees diagnosed by x-ray 10 years ago • Has had synovitis secondary to osteoarthritis in both knees for the last month, confirmed by synovitis on ultrasound. Experimental Treatment • In order to treat the secondary inflammation as a result of their knee osteoarthritis, they are offered intra-articular GnRH antagonist treatment, for example Cetrorelix lmg injected into both knees. Subcutaneous Cetrorelix for injection can be used. Assessment of Response • Before and 2 week post injection ultrasound images are taken to show a decrease in synovitis in the knee joint.

patient with colitis = conditions: week 2 after an infliximab infusion, literature; cited from earlier work

## CONC(=O)Nc1ccc(-c2sc3c(c2CN(C)C)c(=O)n(-c2ccc(OC)nn2)c(=O)n3Cc2c(F)cccc2F)cc1 [Relugolix]
[1]; Relugolix 250 mg daily for 12 weeks, assessment at 4 months
  Eular response: Good Eular Response
[1]; Relugolix 250 mg daily for 12 weeks, assessment at 4 months (remission)
  Disease activity score (DAS): 2.5
[1]; before Relugolix
  Disease activity score (DAS): 3.5
[2]; Relugolix 400 mg daily, at 12 weeks (remission)
  BASDAI: 1.2
[2]; baseline
  BASDAI: 5

## COc1c(C)c2c(c(O)c1C/C=C(\C)CCC(=O)OCCN1CCOCC1)C(=O)OC2 [mycophenolate mofetil]
[3]
  effect on pain in extremities: not effective

## CN(Cc1cnc2nc(N)nc(N)c2n1)c1ccc(C(=O)N[C@@H](CCC(=O)O)C(=O)O)cc1 [methotrexate]
[3]
  effect on pain in extremities: not effective

## CC(C)C[C@H](CN)CC(=O)O [pregabalin]
[3]
  effect on pain in extremities: no effect

## O=P1(N(CCCl)CCCl)NCCCO1 (stereo not drawn) [Cyclophosphamide]
[4]; over a period of 12 months
  digital ulcers, average: 9 ulcers
[4]; start
  digital ulcers, average: 7 ulcers

## CN(C)CCC=C1c2ccccc2CCc2ccccc21 [amitriptyline]
[3]
  effect on pain in extremities: no effect

## Golilimumab: TNF-alpha inhibitor
[5]; June 2012 on Golilimumab
  disease activity score (BASDAI): 6.6
[5]; May 2013 on Golilimumab, effect worn off
  disease activity score (BASDAI): 7.6
[5]; October 2010, on initiating Golilimumab
  disease activity score (BASDAI): 8.9

## Cn1cnc([N+](=O)[O-])c1Sc1ncnc2nc[nH]c12 [azathioprine]
[3]
  effect on pain in extremities: not effective

## NCC1(CC(=O)O)CCCCC1 [gabapentin]
[3]
  effect on pain in extremities: no effect

## Enbrel
[5]; May 2013, on initiating Enbrel
  disease activity (BASDAI): 7.6
[5]; after Enbrel treatment
  disease activity (BASDAI): 8.3

## O[C@H]1[C@H](O)[C@@H](O)[C@H](O)[C@@H](O)[C@H]1O [inositol]
[6]
  median PASI score: 4.9

## CC(=O)N[C@H](Cc1ccc2ccccc2c1)C(=O)N[C@H](Cc1ccc(Cl)cc1)C(=O)N[C@H](Cc1cccnc1)C(=O)N[C@@H](CO)C(=O)N[C@@H](Cc1ccc(O)cc1)C(=O)N[C@H](CCCNC(N)=O)C(=O)N[C@@H](CC(C)C)C(=O)N[C@@H](CCCNC(=N)N)C(=O)N1CCC[C@H]1C(=O)N[C@H](C)C(N)=O [Cetrorelix] (Ac-[d2Nal][dPhe(4-Cl)][d3Pal]SY[dCit]LRP[dA]-NH2)
[7]
  TNF-α: possible reduction
  primary end-point with regard to clinical response: did not meet the primary end-point
[8]; at 12 weeks
  CRP: 18 mg/L
  ESR: 28 mm
  rheumatoid factor level: 111 kIU/L
[8]; at 12 weeks, 0.5 then 0.75 mg sc daily
  Disease activity score (DAS): 5.5
[8]; before Cetrorelix
  CRP: 41 mg/L
  Disease activity score (DAS): 6.1
  ESR: 35 mm
  rheumatoid factor level: 137 kIU/L
mice
  age at death: higher
  atherosclerosis, osteoporosis and systemic inflammation: less
[9]; by day 10, 95% CI −6.62, −0.29, p=0.033
  P1NP mean difference vs placebo: -3.45 µg/L
[9]; cetrorelix group (n=48), 5 mg days 1-2, 3 mg days 3-5, by day 10
  P1NP change: -4.21 µg/L
[9]; cetrorelix vs placebo
  disease activity markers and TNF-α (log pg/mL): significant reductions
[10]
  synovitis in the knee joint on ultrasound: decrease

## infliximab: anti-tumour necrosis factor-α
Patient with colitis
  Fecal calprotectin concentration: decreases significantly
